Experimental data taken from patent publication US20220348883A1, “HIGH-DENSITY CELL CULTURE METHOD” (AJINOMOTO CO., INC., priority 2020, published 2022).

Test system: iPS cell 1210B2 strain
Details: StemFit AK03N+10 mg/L choline chloride vs StemFit AK03N; suspension culture seeded at 6×10^5 cells/mL; viable cells measured on 8th day of culture; n=1
Method: In the following Example, the proliferation effect of induced pluripotent stem cells (iPS cells) by choline were evaluated. As the iPS cell, 1210B2 strain purchased from iPS Academia Japan was used. In addition, as a medium for iPS cells, a commercially available StemFit AKO3N (Ajinomoto Co., Inc.) was used.
Using a 30 mL single use bioreactor for iPS cells (ABLE: BWV-S03A), iPS cell 1210B2 strain was seeded in StemFit AK03N+10 μM Y-27632 (Wako: 034-24024) at a cell density of 6×10^5 cells/mL and the cells were cultured with stirring in a CO2 incubator under the conditions of 37° C., CO2 concentration=5%, stirring speed=120 rpm. On the second day of seeding, 70% of the medium was replaced with StemFit AK03N. […] The cells were transferred to a micro bioreactor ambr15 (sartorius:001-0881), and stirring culture was continued under the conditions of 37° C., pH=7.2, dissolved oxygen concentration=20%, stirring speed=300 rpm. […] On the 8th day of culture, the number of viable cells was measured using Vi-CELL™ XR (Beckman Coulter), a live/dead cell autoanalyzer.

For `C[N+](C)(C)CCO.[Cl-]` [choline, choline chloride], the “influence of choline on the proliferation of iPS cells (number of viable cells)” value was “cell proliferation promoting effect”.
